The values that follow come from PubChem BioAssay (NCI).

Molecules are shown by their SMILES. Several values for one entry are separate records, joined by “and”; a condition that tells them apart may be missing. Equal values may be shown once.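 Dose response: 5 concentrations. Exposure: 48 h. Format: 96-well plates. Endpoint: linear interpolation; highest concentration if not reached. At the GI50, growth is halved. TGI: total growth inhibition.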

Test systems include HCT-116 colon; OVCAR-4 ovarian; RPMI-8226 leukemia; ACHN renal; RXF 393 renal; MCF7 breast; OVCAR-8 ovarian; HT29 colon; 786-0 renal; HCC-2998 colon.
What all share (assay): growth of human tumour cells (NCI), 48 h

Take `Cc1cc(C(C)(C)C)cc(CNC2CCCCC2)c1O`: the TGI in the assay with HCT-116 colon worked out at 28.8 µM; in the assay with OVCAR-4 ovarian it was 51.5 µM; in the assay on RPMI-8226 leukemia it was 45.5 µM; with ACHN renal it was 31 µM; in the assay with RXF 393 renal, 12.6 µM; with MCF7 breast, 32.3 µM. Moreover, the TGI in the assay with OVCAR-8 ovarian was 31 µM; in the assay on HT29 colon, 33.7 µM; in the assay on 786-0 renal, 30 µM; in the assay on HCC-2998 colon it was 10.4 µM.
On to `COc1cc(C(=O)Nc2cc(OC)c3ccn(C)c3c2)cc2c1C[C@]1(C)CC[C@@H](O)C(C)(C)[C@H]1O2`, for which the GI50 in the assay on HCT-116 colon is 0.733 µM; in the assay on OVCAR-4 ovarian, 4.14 µM; in the assay with RPMI-8226 leukemia, 0.0392 µM; in the assay with ACHN renal, 0.944 µM; with RXF 393 renal it was 0.0317 µM; in the assay on MCF7 breast, 0.612 µM. For the same compound, the GI50 in the assay on OVCAR-8 ovarian is 2.69 µM; in the assay on HT29 colon, 1.68 µM; in the assay on 786-0 renal, 0.0878 µM; with HCC-2998 colon it was 3.74 µM. For the same compound, the TGI was 17 µM in the assay on HCT-116 colon; above 100 µM with OVCAR-4 ovarian; 1.16 µM in the assay on RPMI-8226 leukemia; above 100 µM in the assay with ACHN renal; 0.485 µM in the assay with RXF 393 renal; 15.1 µM in the assay on MCF7 breast. For the same compound, the TGI was determined as 58 µM in the assay on OVCAR-8 ovarian, 13.8 µM in the assay on HT29 colon, 5.22 µM in the assay on 786-0 renal and 49.8 µM with HCC-2998 colon.
On to `COc1cc(-c2cc(-c3cc(OC)c(OC)c(OC)c3)nc3nc(N)[nH]c(=O)c23)ccc1Oc1ccnc2cc(Cl)ccc12`, for which the GI50 was 1.29 µM in the assay on HCT-116 colon; 4.34 µM with OVCAR-4 ovarian; 2.52 µM in the assay with RPMI-8226 leukemia; 2.89 µM in the assay with ACHN renal; 2.81 µM in the assay on RXF 393 renal; 0.762 µM with MCF7 breast. In addition, the GI50 was 3.17 µM in the assay on OVCAR-8 ovarian, 10.5 µM in the assay with HT29 colon, 3.86 µM in the assay on 786-0 renal and 3.14 µM in the assay on HCC-2998 colon. Further, the TGI was 22.2 µM with HCT-116 colon; above 100 µM with OVCAR-4 ovarian; 10.2 µM with RPMI-8226 leukemia; 82.7 µM in the assay on ACHN renal; 9.35 µM in the assay with RXF 393 renal; above 100 µM in the assay with MCF7 breast. The TGI with OVCAR-8 ovarian was 79.5 µM; in the assay with HT29 colon, 25.4 µM; in the assay on 786-0 renal it was above 100 µM; in the assay on HCC-2998 colon, 11.3 µM.
As to `COc1ccc(/C=C/C(=O)c2ccc(OC)c(OC)c2)cc1O`, the GI50 in the assay with HCT-116 colon was 3.35 µM; with OVCAR-4 ovarian it was 8.45 µM; in the assay with RPMI-8226 leukemia, 3.19 µM; in the assay on ACHN renal, 6.15 µM; with RXF 393 renal, 2.63 µM; with MCF7 breast, 4.58 µM. For the same compound, the GI50 in the assay on OVCAR-8 ovarian was 2.98 µM; in the assay with HT29 colon, 5.91 µM; in the assay on 786-0 renal, 14.2 µM; in the assay with HCC-2998 colon it was 9.1 µM. The TGI in the assay on HCT-116 colon was 12.8 µM; in the assay on OVCAR-4 ovarian, 20.8 µM; with RPMI-8226 leukemia, 15.1 µM; in the assay on ACHN renal it was above 100 µM; in the assay on RXF 393 renal, 7.62 µM; in the assay on MCF7 breast it was 16.2 µM. Moreover, the TGI in the assay with OVCAR-8 ovarian stood at 10.9 µM; in the assay on HT29 colon it was 20.5 µM; in the assay with 786-0 renal, 65.8 µM; in the assay on HCC-2998 colon, 22.1 µM.
Take `CC(=O)c1cc(C(=O)c2ccc3c(c2)Sc2ccccc2N3)c2cc(C)ccn12`: the GI50 in the assay with HCT-116 colon was 0.0414 µM; in the assay on OVCAR-4 ovarian, 1.29 µM; with RPMI-8226 leukemia, 0.233 µM; with ACHN renal, 0.0816 µM; in the assay with RXF 393 renal, 0.0411 µM; in the assay on MCF7 breast it was 0.0345 µM. For the same compound, the GI50 in the assay on OVCAR-8 ovarian was 0.451 µM; in the assay on HT29 colon it was 0.0627 µM; in the assay on 786-0 renal, 0.0965 µM; in the assay with HCC-2998 colon, 0.247 µM. The TGI in the assay with HCT-116 colon, with OVCAR-4 ovarian, with RPMI-8226 leukemia, in the assay on ACHN renal, in the assay with RXF 393 renal and with MCF7 breast was above 100 µM throughout. Also, the TGI with OVCAR-8 ovarian is above 100 µM; in the assay with HT29 colon it was above 100 µM; in the assay with 786-0 renal, above 100 µM; in the assay with HCC-2998 colon it was 20.6 µM.
Consider `CN(C)c1ccc(/C=C/C2=[N+](C)c3ccccc3C2(C)C)cc1`, for which the GI50 is 0.44 µM in the assay on HCT-116 colon; 1.63 µM with OVCAR-4 ovarian; 0.247 µM in the assay on RPMI-8226 leukemia; 1.38 µM with ACHN renal; 2.26 µM in the assay with RXF 393 renal; 0.382 µM in the assay with MCF7 breast. For the same compound, the GI50 in the assay on OVCAR-8 ovarian is 0.349 µM; in the assay on HT29 colon, 0.293 µM; with 786-0 renal, 2.06 µM; in the assay on HCC-2998 colon, 1.35 µM. Besides, the TGI in the assay with HCT-116 colon was 20.3 µM; in the assay on OVCAR-4 ovarian, 31.5 µM; with RPMI-8226 leukemia it was 3.48 µM; with ACHN renal, 12.8 µM; in the assay on RXF 393 renal it was 16.8 µM; in the assay with MCF7 breast, 8.11 µM. The TGI in the assay on OVCAR-8 ovarian was determined as 12.1 µM; in the assay on HT29 colon, 2.53 µM; in the assay on 786-0 renal, 18.9 µM; with HCC-2998 colon it was 11.5 µM.
Consider `COc1ccc(C2C(C)C(=O)C(C)C(c3ccc(OC)cc3)N2N=O)cc1` (stereo not given), for which the TGI with HCT-116 colon is 455 µM; in the assay with OVCAR-4 ovarian, above 1000 µM; in the assay on RPMI-8226 leukemia, above 1000 µM; with ACHN renal it was above 663 µM; in the assay with RXF 393 renal it was 64.8 µM and 216 µM and 122 µM; in the assay with MCF7 breast it was above 1000 µM. For the same compound, the TGI was 750 µM and > 1000 µM in the assay on OVCAR-8 ovarian; above 1000 µM with HT29 colon; 467 µM in the assay with 786-0 renal; above 1000 µM in the assay with HCC-2998 colon. The GI50 with OVCAR-4 ovarian was above 750 µM; in the assay with RPMI-8226 leukemia it was above 750 µM; with RXF 393 renal, 20.7 µM and 67.6 µM; in the assay with OVCAR-8 ovarian, 30.5 µM and 248 µM; in the assay on HCC-2998 colon it was above 1000 µM.
In the case of `O=c1oc2ccc(Br)cc2c(=O)n1-c1ccc(I)cc1F`, the GI50 with HCT-116 colon was 0.396 µM; in the assay with OVCAR-4 ovarian, 0.389 µM; in the assay on RPMI-8226 leukemia it was 0.266 µM; in the assay with ACHN renal, 0.401 µM; in the assay with RXF 393 renal, 0.396 µM; in the assay with MCF7 breast, 0.709 µM. The GI50 in the assay with OVCAR-8 ovarian was 0.362 µM; in the assay with HT29 colon, 3.31 µM; in the assay with 786-0 renal it was 1.96 µM; with HCC-2998 colon it was 2.2 µM. In addition, the TGI in the assay on HCT-116 colon came to 1.53 µM; with OVCAR-4 ovarian it was 13.7 µM; in the assay on RPMI-8226 leukemia, 1.16 µM; in the assay on ACHN renal it was 6.04 µM; in the assay with RXF 393 renal, 1.93 µM; with MCF7 breast, 5.87 µM. The TGI with OVCAR-8 ovarian turned out to be 5.98 µM; in the assay on HT29 colon, 12.5 µM; in the assay on 786-0 renal, 6.16 µM; in the assay on HCC-2998 colon it was 8.78 µM.
